From patent publication US20240150321A1, “PYRAZOLYLSULFONAMIDE COMPOUNDS AND THEIR USE IN THERAPY” (HOTSPOT THERAPEUTICS, INC., priority 2022, published 2024)
pIC50: −log10 of the molar value. Like-named read-outs stand apart in the source and are kept apart here.

Tests used:
Avi-tagged FL MALT-1 = Avi-tagged FL MALT-1 (Homo sapiens (Human), UniProt Q9UDY8); test: MALT-1 Fluorogenic Peptide Cleavage Assay (MALT1 inhibition assay); type: biochemical; conditions: Ac-LRSR-AMC peptide substrate, 30 min pre-incubation, 90 min reaction at room temperature
Procedure: Inhibition of MALT1 activity by the presence of small molecules was evaluated using MALT-1 Fluorogenic Peptide Cleavage Assay. The assay utilizes a quenched AMC-labelled peptide that contains the MALT-1 recognition sequence and cleavage site (LRSR). MALT-1 mediated cleavage of the peptide relieves the quenching and leads to an increase in fluorescence at excitation (342 nm) and emission (441 nm).
The following reagents were obtained commercially and used to prepare standard reagent formulations as further described below: N-2-hydroxyethylpiperazine-N-2-ethane sulfonic acid (HEPES) (1 M, pH 7.5, stored at 4° C.), sodium citrate (stored at RT), tris(2-carboxyethyl) phosphine hydrochloride (T-CEP) (500 mM, stored at −20° C.), ethylenediaminetetraacetic acid (EDTA) (500 mM, stored at RT), dimethylsulfoxide (DMSO, stored at RT), 3-[(3-cholamido-propyl)dimethylammonio]-1-propane sulphate (CHAPS) (stored at RT), dimethylsulfoxide (DMSO), DMSO (Fisher Scientific, stored at RT), Avi-tagged FL MALT-1 (Pharmaron, stored at −70° C.), Ac-LRSR-AMC Peptide (SM Biochemicals, stored at −20° C.)., and ultrapure water (MILLLI-Q©).
The standard reagent formulations used in this assay were prepared and stored as follows. A 1.1 M solution of sodium citrate (161.3 g, 500 mL) was prepared and stored at room temperature. A 10% (w/v) CHAPS solution (2.0 g, 20 mL) was prepared and stored at 4° C. A 500 mM HEPES solution having pH of 6.89 was prepared from 200 mL of a 1 M HEPES solution having a pH of 7.5 using concentrated hydrochloric acid and brought to a final volume of 400 mL with MILLI-Q© H2O. The substrate, 10 mM Ac-LRSR-AMC Peptide, was prepared (10 mg, 1.370 mL DMSO) and stored at −20° C.
Compounds were plated to provide a 2% DMSO final concentration using a ProxiPlate-384 Plus F Black 384-shallow well microplate. The assay-ready plates were equilibrated to room temperature. A reaction buffer (30 mL total volume) was prepared by combining HEPES (pH 6.89, 25 mM, 1.5 mL), sodium citrate (660 mM, 18.0 mL), T-CEP (1 mM, 0.06 mL), EDTA ([…], 0.06 mL), CHAPS (0.05%, 0.15 mL), DMSO (2%, 0.6 mL), and MILLI-Q© H2O (10.23 mL; 9.63 mL when backfilled to 2% DMSO) followed by thorough mixing. DMSO was added only when compound plates had not been DMSO-backfilled to 2%.
MALT-1 was thawed and kept on ice. Peptide substrate was thawed on the bench under ambient conditions. A MALT-1 enzyme working stock was prepared from Avi-tagged FL MALT-1 (40 nM in a prepared reagent volume of 16.5 μL) and the reaction buffer (13.0 mL). MALT1 working stock (5 μL) was added to each well of the microplate. MALT-1 was pre-incubated with compounds for 30 minutes at room temperature.
Two substrate working stocks (Km and 10×Km) were prepared. The 1×Km substrate was prepared from Ac-LRSR-AMC Peptide (50 μM in a prepared reagent volume of 35.0 μL) and the reaction buffer (6.965 mL). The 10×Km substrate was prepared from Ac-LRSR-AMC Peptide (280 μM in a prepared reagent volume of 196.0 μL) and the reaction buffer (6.804 mL). The reaction was initiated by the addition of substrate working stock (5 μL, 50 μM) to Km plates and the addition of substrate working stock (5 μL 280 μM) to 10×Km plates. The plates were covered and incubated on the bench at room temperature for 90 minutes.
Fluorescence intensity was determined using a CLARIOstar microplate reader (BMG LABTECH) using the optimised AMC mode. Before taking readings, a 70% gain was applied on the neutral control well. Compound data were normalised to % Inhibition and used to plot sigmoidal concentration response curves to yield various parameters including IC50.

[1] = tested on: NF-kB reporter in Jurkat cells; test: NF-kB reporter assay in Jurkat cells stimulated with aCD3/aCD28/PMA; type: cell-based; conditions: Jurkat cells, 1 hr compound pre-incubation, aCD3/aCD28/PMA stimulation 4 hr, One-Glo readout, read-out: NF-kB Reporter Assay IC50
Procedure: Jurkat cells were maintained in complete RPMI 1640 media supplemented with 10% FBS. Prior to the assay, 120 nL of the serial diluted compound was added in each well of 384-well flat bottom white plate (Corning #3570) by using liquid handler Echo550. Jurkat cells were harvested by centrifugation at 120 g for 10 min and resuspended in fresh RPMI 1640 media without serum. […] (25,000 cells) were seeded in each well of 384-well plate containing compound. After 1 hr incubation at 37° C. in a 5% CO2 incubator, […] of diluted aCD3/aCD28/PMA (final concentration at […] and […], respectively) in RPMI 1640 without serum were added to each well. After incubation at 37° C. in 5% CO2 for 4 hr, […] of One-Glo reagent (Promega #E6120) was added into each well. The plate was left at room temperature for 5 min and the signal was measured on EnVision (PerkinElmer).
Compounds in which an IC50 was not measured are designated as “N/A”.

Chain of Avi-tagged FL MALT-1 (Q9UDY8 whole entry): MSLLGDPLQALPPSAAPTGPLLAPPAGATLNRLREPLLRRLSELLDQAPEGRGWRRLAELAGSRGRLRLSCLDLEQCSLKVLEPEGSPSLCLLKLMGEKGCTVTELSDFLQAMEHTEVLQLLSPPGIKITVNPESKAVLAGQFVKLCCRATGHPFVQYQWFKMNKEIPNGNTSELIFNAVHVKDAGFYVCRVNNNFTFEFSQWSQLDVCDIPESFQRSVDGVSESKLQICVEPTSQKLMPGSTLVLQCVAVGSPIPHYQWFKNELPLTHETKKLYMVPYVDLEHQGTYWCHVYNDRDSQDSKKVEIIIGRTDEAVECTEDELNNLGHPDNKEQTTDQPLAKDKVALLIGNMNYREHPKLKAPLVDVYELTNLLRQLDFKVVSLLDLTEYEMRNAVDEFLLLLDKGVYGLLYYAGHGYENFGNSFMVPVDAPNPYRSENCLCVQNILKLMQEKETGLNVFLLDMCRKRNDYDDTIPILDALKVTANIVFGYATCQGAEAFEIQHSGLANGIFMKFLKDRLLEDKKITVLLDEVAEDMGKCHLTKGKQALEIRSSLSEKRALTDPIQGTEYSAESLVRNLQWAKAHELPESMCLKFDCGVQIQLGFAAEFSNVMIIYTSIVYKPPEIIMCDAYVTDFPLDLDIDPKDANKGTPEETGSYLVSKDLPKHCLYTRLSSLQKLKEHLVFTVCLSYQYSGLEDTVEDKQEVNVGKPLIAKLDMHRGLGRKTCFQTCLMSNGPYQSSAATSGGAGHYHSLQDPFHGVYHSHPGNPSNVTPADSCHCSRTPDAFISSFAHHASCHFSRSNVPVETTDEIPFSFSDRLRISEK

Row | SMILES | pIC50 (Avi-tagged FL MALT-1) | pIC50 ([1]; Homo sapiens) | pIC50 [1]
1 | Cn1ncc2cccc(NS(=O)(=O)c3cnn(-c4cc(C5(O)CCOC5)ccn4)c3)c21 (stereo in doubt) [Compound I-310, (S)-1-(4-(3-hydroxytetrahydrofuran-3-yl)pyridin-2-yl)-N-(1-methyl-1H-indazol-7-yl)-1H-pyrazole-4-sulfonamide] | < 5.60 | > 6.40 | 
2 | Cn1ncc2cccc(NS(=O)(=O)c3cnn(-c4cc(C5(O)CCOC5)ccn4)c3)c21 (stereo in doubt) [Compound I-312, (R)-1-(4-(3-hydroxytetrahydrofuran-3-yl)pyridin-2-yl)-N-(1-methyl-1H-indazol-7-yl)-1H-pyrazole-4-sulfonamide] | < 5.60 | > 6.40 | 
3 | CC[C@](C)(OC)c1ccnc(-n2cc(S(=O)(=O)Nc3cccc4cnn(C)c34)cn2)c1 (stereo in doubt) [Compound I-313, 1-(4-(2-methoxybutan-2-yl)pyridin-2-yl)-N-(1-methyl-1H-indazol-7-yl)-1H-pyrazole-4-sulfonamide] | < 5.60 | > 6.40 | 
4 | CC[C@@](C)(OC)c1ccnc(-n2cc(S(=O)(=O)Nc3cccc4cnn(C)c34)cn2)c1 (stereo in doubt) [Compound I-314, 1-(4-(2-methoxybutan-2-yl)pyridin-2-yl)-N-(1-methyl-1H-indazol-7-yl)-1H-pyrazole-4-sulfonamide] | < 5.60 | > 6.40 | 
5 | CCc1ccc2cnn(C)c2c1NS(=O)(=O)c1cnn(-c2ccc(C(F)(F)F)cn2)c1 [Compound I-1, 3N-(6-Ethyl-1-Methyl-1H-Indazol-7-yl)-1-(5-(Trifluoromethyl)Pyridin-2-yl)-1H-Pyrazole-4-Sulfonamide] | ≥ 6.40 | > 6.40 | 
6 | CCc1ccc2cnn(C)c2c1NS(=O)(=O)c1cnn(-c2ccnc(C(F)(F)F)c2)c1 [Compound I-2, N-(6-Ethyl-1-Methyl-1H-Indazol-7-yl)-1-(2-(Trifluoromethyl) Pyridin-4-yl)-1H-Pyrazole-4-Sulfonamide] | ≥ 6.40 | > 6.40 | 
7 | CCc1ccc2cnn(C)c2c1NS(=O)(=O)c1cnn(-c2cncc(C(F)(F)F)c2)c1 [Compound I-3, N-(6-Ethyl-1-Methyl-1H-Indazol-7-yl)-1-(5-(Trifluoromethyl) Pyridin-3-yl)-1H-Pyrazole-4-Sulfonamide] | ≥ 6.40 | > 6.40 | 
8 | Cn1ncc2ccc(CC#N)c(NS(=O)(=O)c3cnn(-c4ccnc(C(F)(F)F)c4)c3)c21 [Compound I-6, N-(6-(Cyanomethyl)-1-Methyl-1H-Indazol-7-yl)-1-(2-(Trifluoromethyl)Pyridin-4-yl)-1H-Pyrazole-4-Sulfonamide] | 6.00 to 6.40 | 5.60 to 6.00 | 
9 | CN(C)c1ccc2cnn(C)c2c1NS(=O)(=O)c1cnn(-c2ccnc(C(F)(F)F)c2)c1 [Compound I-7, N-(6-(Dimethylamino)-1-Methyl-1H-Indazol-7-yl)-1-(2-(Trifluoromethyl)Pyridin-4-yl)-1H-Pyrazole-4-Sulfonamide] | ≥ 6.40 | 6.00 to 6.40 | 
10 | C#Cc1ccc2cnn(C)c2c1NS(=O)(=O)c1cnn(-c2ccnc(C(F)(F)F)c2)c1 [Compound I-8, N-(6-Ethynyl-1-Methylindazol-7-yl)-1-(2-(Trifluoromethyl) Pyridin-4-yl)-Pyrazole-4-Sulfonamide] | ≥ 6.40 | 6.00 to 6.40 | 

Now from value to compound:

Row | pIC50 (Avi-tagged FL MALT-1) | pIC50 ([1]; Homo sapiens) | pIC50 [1] | SMILES
11 | ≥ 6.40 | > 6.40 |  | CCC(C)(OC)c1ccnc(-n2cc(S(=O)(=O)Nc3c(OC)ccc4cnn(C)c34)cn2)c1 (single isomer, unassigned) [Compound I-360, N-(6-methoxy-1-methyl-1H-indazol-7-yl)-1-(4-(2-methoxybutan-2-yl)pyridin-2-yl)-1H-pyrazole-4-sulfonamide]
12 | ≥ 6.40 |  | > 6.40 | CCC(C)(OC)c1ccnc(-n2cc(S(=O)(=O)Nc3c(OC)ccc4cnn(C)c34)cn2)c1 (single isomer, unassigned) [Compound I-361, N-(6-methoxy-1-methyl-1H-indazol-7-yl)-1-(4-(2-methoxybutan-2-yl)pyridin-2-yl)-1H-pyrazole-4-sulfonamide]
13 | 6.00 to 6.40 | > 6.40 |  | COc1ccc2cnn(C)c2c1NS(=O)(=O)c1cnn(-c2cc(C3(OC)CC(C)C3)ccn2)c1 (single isomer, unassigned) [Compound I-364, N-(6-methoxy-1-methyl-1H-indazol-7-yl)-1-(4-(1-methoxy-3-methylcyclobutyl)pyridin-2-yl)-1H-pyrazole-4-sulfonamide]
14 | ≥ 6.40 |  | > 6.40 | COc1ccc2cnn(C)c2c1NS(=O)(=O)c1cnn(-c2cc(C3(OC)CC(C)C3)ccn2)c1 (single isomer, unassigned) [Compound I-365, N-(6-methoxy-1-methyl-1H-indazol-7-yl)-1-(4-(1-methoxy-3-methylcyclobutyl)pyridin-2-yl)-1H-pyrazole-4-sulfonamide]
15 | 6.00 to 6.40 | > 6.40 |  | COc1ccc2cnn(C)c2c1NS(=O)(=O)c1cnn(-c2cc(C3(F)CC(F)C3)ccn2)c1 (single isomer, unassigned) [Compound I-377, 1-(4-(1,3-difluorocyclobutyl)pyridin-2-yl)-N-(6-methoxy-1-methyl-1H-indazol-7-yl)-1H-pyrazole-4-sulfonamide]
16 | ≥ 6.40 |  | > 6.40 | COc1ccc2cnn(C)c2c1NS(=O)(=O)c1cnn(-c2cc(C3(F)CC(F)C3)ccn2)c1 (single isomer, unassigned) [Compound I-378, 1-(4-(1,3-difluorocyclobutyl)pyridin-2-yl)-N-(6-methoxy-1-methyl-1H-indazol-7-yl)-1H-pyrazole-4-sulfonamide]
17 | ≥ 6.40 | > 6.40 |  | COc1ccc2cnn(C)c2c1NS(=O)(=O)c1cnn(-c2ccnc(C(F)(F)F)c2)c1 [Compound I-4, N-(6-Methoxy-1-Methyl-1H-Indazol-7-yl)-1-(2-(Trifluoromethyl)Pyridin-4-yl)-1H-Pyrazole-4-Sulfonamide]
18 | ≥ 6.40 | 6.00 to 6.40 |  | CCOc1ccc2cnn(C)c2c1NS(=O)(=O)c1cnn(-c2ccnc(C(F)(F)F)c2)c1 [Compound I-9, N-(6-Ethoxy-1-Methyl-1H-Indazol-7-yl)-1-(2-(Trifluoromethyl)Pyridin-4-yl)-1H-Pyrazole-4-Sulfonamide]
19 | ≥ 6.40 | 6.00 to 6.40 |  | CC(C)Oc1ccc2cnn(C)c2c1NS(=O)(=O)c1cnn(-c2ccnc(C(F)(F)F)c2)c1 [Compound I-10, N-(6-Isopropoxy-1-Methyl-1H-Indazol-7-yl)-1-(2-(Trifluoromethyl)Pyridin-4-yl)-1H-Pyrazole-4-Sulfonamide]
